Test results taken from patent US6440980B1, “Synergistic inhibition of viral replication by long-chain hydrocarbons and nucleoside analogs” (Avanir Pharmaceuticals, priority 1996, dated 2002).
Read-outs that look alike come from different tables or passages of the source.

Assays:
[1] = test system: HSV-1; assay: HSV-1 PFU production in Vero cell cultures; type: cell-based, HSV-1 (MacIntyre strain)
[2] = test system: vaccinia virus; assay: microbe, parasite or virus in culture; type: cell-based, vaccinia virus (WR strain); conditions: for EC50: read-out: EC50 for inhibition of vaccinia virus replication
[3] = test system: all cell lines tested; assay: Cytotoxicity in mammalian cell cultures; conditions: for IC50: read-out: IC50 (cellular toxicity by chain length)
Text: Three assays were used to quantitate the effects of aliphatic alcohols on cell survival and proliferation: 1) counting cells with a hemocytometer and determining the number of cells that exclude trypan blue; 2) measuring the incorporation of ^3H-thymidine into cellular DNA by adding ^3H-thymidine (from New England Nuclear) to the culture medium, lysing the cells with water and harvesting the DNA onto filter paper; and 3) measuring total cellular protein using a sulforhodamine assay adapted for use in 96-well microtiter plates (Skehan et al., J. Natl. Cancer Inst. […] All of these methods are well known cell viability and cytotoxicity assays.

[4] = test system: Vero cells; conditions: African green monkey
[5] = test system: HSV-2; assay: Inhibition of HSV-2 plaque formation in Vero cells; conditions: for inhibition of viral plaque production at concentrations that were not cytotoxic: 0.2 μM stearyl alcohol, 2 μM arachidyl alcohol; for 50% Inhibition Concentration (mM): alcohol suspension in PLURONIC F-68, Vero cells incubated 12 hr before HSV-2, linear regression, Toxic = monolayer destroyed by end of 12-hour incubation with at least 1.5 mM; for Percent Inhibition of Plaque Formation: PLURONIC F-68 suspension added 12 hr before HSV-2 (erucyl alcohol with the virus), Toxic = monolayer destroyed within 24 hr
[6] = test system: B cell hybridoma (MBI-9); assay: 3H-thymidine incorporation into DNA of B cell hybridoma; type: cell-based, murine; conditions: Mus musculus, read-out: IC50 (3H-thymidine incorporation)
[7] = test system: influenza virus; type: in vivo, human; conditions: for highest recorded body temperature (mean): erucyl alcohol 0.15 mM five times per day, erucamide 1.5 mM three times per day, untreated 38.9; for mean duration of flu symptoms: untreated 3 days
[8] = test system: Vero cells; assay: Cytotoxicity to Vero cells (monolayer integrity, trypan blue exclusion); conditions: surfactant suspension
[9] = test system: human foreskin fibroblasts; assay: Cell proliferation (cytostasis), sulforhodamine staining; type: cell-based; conditions: 1,000 cells/well, 96-hours incubation
Experimental: The effects of n-docosanol and n-docosane suspensions on cell proliferation (cytostasis) were quantitated using the sulforhodamine staining assay on cultures of human foreskin fibroblasts incubated in 96-well plates.
Foreskin fibroblasts were plated with or without aliphatic alcohol suspensions or control surfactant suspensions at 1,000 cells/well (FIG. 6A and FIG. 7) or at 30,000 cells/well (FIG. 6B) in 96 well plates. After incubation for 72 hr or 96 hr at 37° C., cells were precipitated with trichloroacetic acid, stained with sulforhodamine and quantitated by measuring the OD540 in a microtiter plate reader.

[10] = 15 mM n-docosanol, 500 PFU/culture, three days, read-out: EC90 for inhibition of HSV-1 PFU production in the presence of n-docosanol
[11] = Human alphaherpesvirus 1, Vero, 72 h, read-out: EC90 for inhibition of HSV-1 PFU production, drug used alone
[12] = Orthopoxvirus vaccinia, Vero, 72 h
[13] = Human alphaherpesvirus 2, Vero, read-out: Percent Inhibition of Plaque Formation
[14] = Human alphaherpesvirus 2, Vero, read-out: 50% Inhibition Concentration (mM)

With `Nc1ncnc2c1ncn2[C@@H]1O[C@H](CO)[C@@H](O)[C@@H]1O` [Ara-A, Adenine 9-β-D-arabinofuranoside] the “reduction of EC90 by n-docosanol” value ([1]; 15 mM n-docosanol) was 16 fold, the EC90 [1, 10] was roughly 1.4 µM and the EC90 ([1]; control cultures without n-docosanol, 500 PFU/culture, three days, read-out: EC90 for inhibition of HSV-1 PFU production, drug used alone) was roughly 22 µM. It also gave an EC50 ([2]; control cultures (medium or PLURONIC F-68), 3 days post-infection) of roughly 20 µM.

`O=C(O)P(=O)(O)O` [PFA, phosphonoformic acid] was tested, and the EC90 [1, 10] was 17 µM, the EC90 ([1]; Human alphaherpesvirus 1, Vero, 72 h, control cultures without n-docosanol, 500 PFU/culture, three days, read-out: EC90 for inhibition of HSV-1 PFU production, drug used alone) was roughly 18 µM and the “interaction of n-docosanol with the antiviral activity of PFA against vaccinia virus” value ([2]; presence or absence of n-docosanol or PLURONIC F-68) was “no drug-drug interaction”.

With `O=c1[nH]c(=O)n([C@H]2C[C@H](O)[C@@H](CO)O2)cc1C(F)(F)F` [Trifluridine, trifluridine deoxyriboside] the “reduction of EC90 by n-docosanol” value ([1]; 15 mM n-docosanol) was 5 fold, the EC90 [1, 11] was roughly 6.8 µM and the EC90 ([1]; read-out: EC90 for inhibition of HSV-1 PFU production in the presence of n-docosanol, 15 mM n-docosanol, 500 PFU/culture, three days) was roughly 1.35 µM. The EC50 [2, 12] was roughly 2 µM.

In the case of `CCCCCCCCCCCCCCCCCCCCO` [arachidyl alcohol], the IC50 [3] is reported as 1500 µM, the “cytotoxicity of the suspensions (in words)” value (“cytotoxicity” for short) ([3]; surfactant suspensions) is reported as “extremely cytotoxic” and the “concentration that was not cytotoxic” value [4] is reported as 2 µM. For the same molecule, the “inhibition of viral plaque production at concentrations that were not cytotoxic” value [5] was “no inhibition of viral plaque production”, the “50% Inhibition Concentration (mM)” value [5] was “Toxic**” and the IC50 ([6]; 48 hr incubation) was roughly 1700 µM.

For `CCCCCCCC/C=C\CCCCCCCCCCCC(N)=O` [erucamide, cis-13-docosenoamide], the “concentrations toxic to Vero cells (cells rounded and detached)” value [4] was no less than 3000 µM, the “highest recorded body temperature (mean)” value [7] was “about 37 °C” and the “mean duration of flu symptoms” value [7] was “two”. The “concentrations tolerable to the cells” value [8] was no more than 1700 µM, the inhibition at 30 µM [5, 13] was 34% and the inhibition at 590 µM [5, 13] was 42%. For the same molecule, the inhibition at 890 µM [5, 13] was 44%, the inhibition at 1200 µM [5, 13] was 58% and the inhibition at 1500 µM [5, 13] was 68%. It also gave an inhibition at 1700 µM [5, 13] of 78%.

For `CCCCCCCC/C=C\CCCCCCCCCCCCO` [erucyl alcohol, cis-13-docosen-1-ol], the “concentrations tolerable to the cells” value [4] was no more than 1000 µM, the “concentrations toxic to Vero cells (cells rounded and detached)” value [4] was 2000 to 15000 µM and the “highest recorded body temperature (mean)” value [7] was 37.8 °C. For the same molecule, the “mean duration of flu symptoms” value [7] was 1.7 days, the “frequency of fever per flu episode” value ([7]; in vivo) was “one to three” and the “EC50 lower than the concentration required for n-docosanol” value ([5]; 0.15 mM vs 9 mM) was 60 fold. For the same molecule, the “Percent Inhibition of Plaque Formation” value ([5]; 2 mM) was “Toxic”, the “Percent Inhibition of Plaque Formation” value ([5]; 4 mM) was “Toxic” and the “Percent Inhibition of Plaque Formation” value ([5]; 8 mM) was “Toxic”. The “Percent Inhibition of Plaque Formation” value ([5]; 15 mM) was “Toxic”, the direct virucidal effect ([5]; HSV-2 incubated with the suspension for 2 hours, subsequent plaque formation on Vero cells) was “did not inactivate the virus” and the inhibition at 250 µM [5, 13] was 70%. It also gave an inhibition at 500 µM [5, 13] of 91%, an inhibition at 1000 µM [5, 13] of 93% and an EC50 ([5]; Human alphaherpesvirus 2, Vero, read-out: effective concentration required to inhibit plaque formation by 50% (EC50), surfactant suspension, Example 5) of 0.15 mM.

For `CCCCCCCCCCCCCCCCCCCCCO` [heneicosanol], the IC50 [3] was greater than 15000 µM, the “cytotoxicity” value ([3]; surfactant suspensions) was “same minimal level of cytotoxicity” and the EC50 [5, 14] was 16 mM.

With `CCCCCCCCCCCCCCCCCCCCCCCCO` [lignoceryl alcohol, n-tetracosanol] the “cytotoxicity” value ([3]; surfactant suspensions) was “same minimal level of cytotoxicity” and the EC50 [5, 14] was 14.1 mM.

In the case of `CCCCCCCCCCCCCCCCCCCCCC` [n-docosane], the “antiproliferation effects compared to the surfactant control” value [9] is reported as “minimal antiproliferation effects”, the inhibition at 1000 µM [5, 13] is reported as 28% and the inhibition at 2000 µM [5, 13] is reported as 31%. It also gave an inhibition at 4000 µM [5, 13] of 42%, an inhibition at 8000 µM [5, 13] of 55% and an inhibition at 15000 µM [5, 13] of 58%.

`CCCCCCCCCCCCCCCCCCCCCC(=O)O` [n-docosanoic acid] was tested, and the “concentrations tolerable to the cells” value [8] was no more than 2000 µM, the “Percent Inhibition of Plaque Formation” value ([5]; 4 mM) was “Toxic” and the “Percent Inhibition of Plaque Formation” value ([5]; 8 mM) was “Toxic”. The “Percent Inhibition of Plaque Formation” value ([5]; 15 mM) was “Toxic^†”, the inhibition at 500 µM [5, 13] was 26% and the inhibition at 1000 µM [5, 13] was 16%. The inhibition at 2000 µM [5, 13] was 30%.

For `CCCCCCCCCCCCCCCCCCCCCCCCCCCCO` [n-octacosanol], the “cytotoxicity” value [3] was “same minimal level of cytotoxicity” and the EC50 [5, 14] was 10.5 mM.

With `NC(=O)c1ncn([C@@H]2O[C@H](CO)[C@@H](O)[C@H]2O)n1` [ribavirin] the “reduction of EC90 by n-docosanol” value ([1]; 15 mM n-docosanol) was 75 fold, the EC90 [1, 10] was roughly 0.33 µM and the EC90 [1, 11] was roughly 24.6 µM. For the same molecule, the EC50 [2, 12] was roughly 25 µM.

For `CCCCCCCCCCCCCCCCCCO` [stearyl alcohol], the IC50 [3] was less than 35 µM, the “inhibition of viral plaque production at concentrations that were not cytotoxic” value [5] was “no inhibition of viral plaque production” and the “50% Inhibition Concentration (mM)” value [5] was “Toxic**”. It also gave an IC50 [6] of less than 35 µM.
